Test results published in ChEMBL document CHEMBL4673379 (ACS Med Chem Lett, 2021).

Tests used:
Human alphaherpesvirus 3 [1] = experiment: Antiviral activity against thymidine kinase positive Varicella zoster virus OKA infected in human HEL cells assessed as reduction in virus plaque formation measured on day 5 post-viral infection; type: functional, organism-based; conditions: Human alphaherpesvirus 3, OKA, 120 h
Human betaherpesvirus 5 [2] = experiment: Antiviral activity against Human cytomegalovirus AD169 infected in human HEL cells assessed as reduction in virus plaque formation measured on day 6 to 7 post-viral infection; type: functional, cell-based; conditions: Human betaherpesvirus 5, AD169, HEL, 144 h
[3] = Cytotoxicity against human HEL cells assessed as alteration in cell morphology incubated for 3 days by microscopic analysis; type: cell-based; conditions: time 3 day
Human betaherpesvirus 5 [4] = experiment: Antiviral activity against Human cytomegalovirus Davis infected in human HEL cells assessed as reduction in virus plaque formation measured on 6 to 7 post-viral infection; type: functional, cell-based; conditions: Human betaherpesvirus 5, Davis
Human alphaherpesvirus 3 [5] = experiment: Antiviral activity against thymidine kinase deficient Varicella zoster virus 07-1 infected in human HEL cells assessed as reduction in virus plaque formation measured on day 5 post-viral infection; type: functional, organism-based; conditions: Human alphaherpesvirus 3, 07-1, HEL, 120 h
[6] = Cytotoxicity against African green monkey Vero cells assessed as alteration in cell morphology by microscopic analysis; type: cell-based; conditions: chlorocebus sabaeus
SARS-CoV-2 [7] = experiment: Antiviral activity against SARS-CoV-2 UC-1075 infected in African green monkey Vero cells assessed as reduction in virus plaque formation measured on day 5 post-viral infection by microscopic analysis; type: functional, organism-based; conditions: Severe acute respiratory syndrome coronavirus 2, UC-1075, Vero, 120 h
Vero = experiment: Cytotoxicity against African green monkey Vero cells assessed as reduction in cell growth by coulter counter analysis; type: cell-based; conditions: chlorocebus sabaeus
SARS-CoV-2 [8] = experiment: Antiviral activity against SARS-CoV-2 UC-1074 infected in African green monkey Vero cells assessed as reduction in virus plaque formation measured on day 5 post-viral infection by microscopic analysis; type: functional, organism-based; conditions: Severe acute respiratory syndrome coronavirus 2, UC-1074, Vero, 120 h
HEL = experiment: Cytotoxicity against human HEL cells assessed as reduce in cell growth incubated for 3 days by coulter counter analysis; type: cell-based; conditions: 72 h, time 3 day
[9] = Selectivity index, ratio of CC50 for African green monkey Vero cells to EC50 for antiviral activity against SARS-CoV-2 UC-1075 infected in African green monkey Vero cells; type: toxicity; conditions: read-out: Ratio CC50/EC50
[10] = Selectivity index, ratio of CC50 for human HEL cells to EC50 for antiviral activity against thymidine kinase positive Varicella zoster virus OKA infected in human HEL cells; type: toxicity, cell-based; conditions: read-out: Ratio CC50/EC50
[11] = Selectivity index, ratio of CC50 for human HEL cells to EC50 for antiviral activity against thymidine kinase deficient Varicella zoster virus 07-1 infected in human HEL cells; type: toxicity, cell-based; conditions: read-out: Ratio CC50/EC50
SARS-CoV-2 [12] = experiment: Antiviral activity against SARS-CoV-2 infected in African green monkey Vero cells assessed as reduction in virus plaque formation measured on day 5 post-viral infection by microscopic analysis relative to remdesivir; type: functional, Severe acute respiratory syndrome coronavirus 2; conditions: time 5 day
rhinovirus A1B = experiment: Antiviral activity against Human rhinovirus 1B infected in human HeLa cells assessed as inhibition of virus-induced cytopathicity measured after 2 days by SRB method; type: functional, organism-based; conditions: Rhinovirus A, 48 h
Enterovirus C = experiment: Antiviral activity against Polio virus Mahoney infected in human HeLa cells assessed as inhibition of viral replication incubated for 2 days by luminescence analysis; type: functional, organism-based; conditions: 48 h
[13] = tested on: Human immunodeficiency virus 1; experiment: Antiviral activity against HIV-1 infected in HEK293T cells assessed as inhibition of viral replication treated with compound 2 hrs prior to viral infection and measured after 24 hrs by flow cytometry; type: functional, organism-based; conditions: Human immunodeficiency virus 1, HEK-293T
[14] = tested on: Middle East respiratory syndrome-related coronavirus; experiment: Antiviral activity against MERS-CoV Hu/Jordan-N3/2012 infected in African green monkey Vero E6 cells assessed as inhibition of viral replication treated for 1 hr prior to viral infection and measured after 48 hrs by ELISA; type: functional, organism-based; conditions: Hu/Jordan-N3/2012, Vero C1008
Zika virus = experiment: Antiviral activity against Zika virus infected in human RPE cells assessed as inhibition of virus-induced cytopathic effect measured at 48 hrs post-viral infection by CellTiter Glo assay; type: functional, organism-based; conditions: HRPE
SARS-CoV-2 [15] = experiment: Antiviral activity against SARS-CoV-2 infected in African green monkey Vero E6 cells assessed as reduction in viral RNA copy number incubated for 24 hrs by real time RT-PCR analysis; type: functional, organism-based; conditions: Severe acute respiratory syndrome coronavirus 2, Vero C1008, 24 h
Influenza A virus = experiment: Antiviral activity against Influenza A virus (A/Puerto Rico/8/34(H1N1)) expressing NS116-GFP infected in human RPE cells assessed as inhibition of viral replication measured after 24 hrs by luminescence based assay; type: functional, organism-based; conditions: A/Puerto Rico/8/1934(H1N1), HRPE
Hepatitis C virus = experiment: Antiviral activity against Hepatitis C virus assessed as inhibition of viral replication incubated for 3 days by Renilla luciferase based assay; type: functional, organism-based, Hepacivirus hominis; conditions: 72 h

Row | Structure (SMILES) | EC50 (Human alphaherpesvirus 3 [1]) [nM] | EC50 (Human betaherpesvirus 5 [2]) [nM] | MCC at 72 h [3] [µM] | EC50 (Human betaherpesvirus 5 [4]) [nM] | EC50 (Human alphaherpesvirus 3 [5]) [nM] | MCC [6] [µM] | EC50 (SARS-CoV-2 [7]) [nM] | CC50 (Vero) [nM] | EC50 (SARS-CoV-2 [8]) [nM] | CC50 (HEL) [nM] | also measured
1 | CO[C@]1(CO)O[C@@H](n2ccc(=O)[nH]c2=O)C(F)(F)[C@@H]1O | > 100000 | > 100000 | > 100 | > 100000 | > 100000 | – | – | – | – | – | –
2 | CO[C@]1(CO)O[C@@H](n2ccc(N)nc2=O)C(F)(F)[C@@H]1O | > 100000 | > 100000 | > 100 | > 100000 | > 100000 | > 100 | ≥ 86200 | > 100000 | – | – | –
3 | CCN(CCO)CCCC(C)Nc1ccnc2cc(Cl)ccc12 (stereo not given) [HYDROXYCHLOROQUINE] | – | – | – | – | – | 100 | 1740 | 36900 | 8100 | – | –
4 | Nc1ccn(C[C@@H](CO)OCP(=O)(O)O)c(=O)n1 [CIDOFOVIR] | – | 650 | 300 | 340 | – | – | – | – | – | – | –
5 | CO[C@]1(COP(=O)(N[C@@H](C)C(=O)OCc2ccccc2)Oc2ccccc2)O[C@@H](n2ccc(N)nc2=O)C(F)(F)[C@@H]1O (stereo not given in full) | > 100000 | > 100000 | > 100 | > 100000 | > 100000 | ≥ 100 | ≥ 55100 | ≥ 93600 | > 100000 | – | –
6 | C[C@H](NP(=O)(OC[C@@]1(F)O[C@@H](n2ccc(N)nc2=O)C(F)(F)[C@@H]1O)Oc1ccccc1)C(=O)OCc1ccccc1 (stereo not given in full) | 2320 | 15500 | > 100 | 4000 | 2840 | 4 | 730 | 1440 | ≥ 2400 | 84400 | selectivity ratio [9]: < 2; selectivity ratio [10]: 36; selectivity ratio [11]: 29; Ratio (SARS-CoV-2 [12]): 10
7 | O=c1[nH]c(=O)n([C@H]2C[C@H](O)[C@@H](CO)O2)cc1/C=C/Br [BRIVUDINE] | 36 | – | > 300 | – | 6040 | – | – | – | – | > 300000 | selectivity ratio [10]: > 8330; selectivity ratio [11]: > 49
8 | CCC(CC)COC(=O)[C@H](C)N[P@](=O)(OC[C@H]1O[C@@](C#N)(c2ccc3c(N)ncnn23)[C@H](O)[C@@H]1O)Oc1ccccc1 | – | – | – | – | – | > 40 | 1520 | > 40000 | 5800 | – | –
9 | Nc1ccn([C@@H]2O[C@](F)(CO)[C@@H](O)C2(F)F)c(=O)n1 | 42 | 815 | 20 | 930 | 166 | 0.16 | 96 | 260 | 360 | 110 | selectivity ratio [9]: 2; selectivity ratio [10]: 2; selectivity ratio [11]: < 1; Ratio (SARS-CoV-2 [12]): 20
10 | Nc1ccn([C@@H]2O[C@H](CO)[C@@H](O)C2(F)F)c(=O)n1 [GEMCITABINE] | 28 | 74 | 20 | 53 | 54 | 0.008 | > 1.6 | 4.3 | > 3.2 | 3.6 | EC50 (rhinovirus A1B): 810 nM; IC50 (Enterovirus C): 300 nM; EC50 [13]: 16.3 nM; EC50 [14]: 1220 nM; EC50 (Zika virus): 10 nM; EC50 (SARS-CoV-2 [15]): 1240 nM; EC50 (Influenza A virus): 68 nM; EC50 (Hepatitis C virus): 12 nM
11 | Nc1nc(O)c2ncn(COC(CO)CO)c2n1 [GANCICLOVIR] | – | – | 350 | – | – | – | – | – | – | – | –
12 | C[C@H](NP(=O)(OC[C@H]1O[C@@H](n2ccc(N)nc2=O)C(F)(F)[C@@H]1O)Oc1ccccc1)C(=O)OCc1ccccc1 (stereo not given in full) [FOSGEMCITABINE PALABENAMIDE] | 74 | 66 | > 100 | 32 | 89 | 0.048 | > 12.8 | 20 | > 32 | 340 | selectivity ratio [10]: 4; selectivity ratio [11]: 3
13 | Nc1nc2c(ncn2COCCO)c(=O)[nH]1 [ACYCLOVIR] | – | – | > 440 | – | – | – | – | – | – | 424000 | –
14 | O=c1ccn([C@@H]2O[C@](F)(CO)[C@@H](O)C2(F)F)c(=O)[nH]1 | > 100000 | > 100000 | > 100 | > 100000 | > 100000 | – | – | – | – | – | –
